# Experimental data from patent publication US9580390B2, “Indazole compounds as kinase inhibitors and method of treating cancer with same” (University Health Network, priority 2011, dated 2017).
# Columns and labels:
# [1] = test system: ovarian cancer cells (PA-1); test: Cancer cell line growth inhibition (SRB assay); format: cell-based; details: Homo sapiens, PA-1; read-out: Cancer Cell Line GI50 Range PA-1
# Breast cancer cells = test: Cancer cell line growth inhibition (SRB assay); format: cell-based; details: Homo sapiens; MDA-MB-468; read-out: Cancer Cell Line GI50 Range MDA-MB-468
# human TTK = molecular target: T1, human TTK (Homo sapiens, UniProt P33981); test: TTK inhibition assay (indirect ELISA); format: biochemical; details: read-out: TTK IC50 Range
# T1 construct: amino terminal GST fusion of full length human TTK; purchased Invitrogen
# T1 sequence (P33981 1-857): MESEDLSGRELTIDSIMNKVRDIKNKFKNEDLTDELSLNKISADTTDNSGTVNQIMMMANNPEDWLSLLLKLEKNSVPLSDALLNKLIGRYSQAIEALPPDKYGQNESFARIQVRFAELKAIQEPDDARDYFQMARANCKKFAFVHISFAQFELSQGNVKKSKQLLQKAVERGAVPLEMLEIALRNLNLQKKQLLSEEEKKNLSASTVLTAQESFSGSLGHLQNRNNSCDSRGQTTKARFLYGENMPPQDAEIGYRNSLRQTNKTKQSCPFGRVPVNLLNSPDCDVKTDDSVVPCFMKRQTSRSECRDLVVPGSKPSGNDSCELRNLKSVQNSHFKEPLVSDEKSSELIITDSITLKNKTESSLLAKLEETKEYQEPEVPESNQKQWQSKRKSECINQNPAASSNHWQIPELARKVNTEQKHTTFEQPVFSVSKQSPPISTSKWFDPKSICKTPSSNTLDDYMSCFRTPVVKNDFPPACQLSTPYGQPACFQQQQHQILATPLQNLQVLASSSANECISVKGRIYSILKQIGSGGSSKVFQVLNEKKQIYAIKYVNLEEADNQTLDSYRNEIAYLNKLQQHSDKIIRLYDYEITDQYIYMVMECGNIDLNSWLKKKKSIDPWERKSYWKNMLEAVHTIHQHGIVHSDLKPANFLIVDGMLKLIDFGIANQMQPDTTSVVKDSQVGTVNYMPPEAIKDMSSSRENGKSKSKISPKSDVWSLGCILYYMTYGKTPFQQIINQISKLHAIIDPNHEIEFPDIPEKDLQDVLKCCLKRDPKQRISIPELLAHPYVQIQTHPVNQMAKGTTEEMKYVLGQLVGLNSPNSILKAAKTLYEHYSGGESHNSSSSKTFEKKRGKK
# Procedure: Active TTK was purchased from Invitrogen as an amino terminal GST fusion of full length human TTK. Amino terminal 6 histidine, sumo tagged human TTK (residues 1-275) was expressed in E. coli, and purified to >95% homogeneity by Ni^2+ agarose, gel filtration, and ion exchange chromatography.
# TTK activity was measured using an indirect ELISA detection system. GST-TTK (0.68 nM) was incubated in the presence of 16 μM ATP (Sigma cat# A7699), 50 mM Hepes pH 7.2, 1 mM EGTA, 10 mM MgCl2, and 0.1% Pluronic in a 96 well microtitre plate pre-coated with amino terminal 6 histidine, sumo tagged TTK (amino acid residues 1-275). The reaction was allowed to proceed for 30 minutes, followed by 5 washes of the plate with Wash Buffer (phosphate buffered saline supplemented with 0.2% Tween 20), and incubation for 30 minutes with a 1:3000 dilution of primary antibody (Cell Signaling cat# 9381). The plate was washed 5 times with Wash Buffer, incubated for 30 minutes in the presence of secondary antibody coupled to horse radish peroxidase (BioRad cat# 1721019, 1:3000 concentration), washed an additional 5 times with Wash Buffer, and incubated in the presence of TMB substrate (Sigma cat# T0440). The colourimetric reaction was allowed to continue for 5 minutes, followed by addition of stop solution (0.5 N sulphuric acid), and quantified by detection at 450 nm with either a monochromatic or filter based plate reader (Molecular Devices M5 or Beckman DTX880, respectively).
# Compounds were pre-incubated in the presence of enzyme for 5 minutes prior to addition of ATP and the activity remaining quantified using the above described activity assay. The % Inhibition of a compound was determined using the following formula: % Inhibition=100×(1−(experimental value−background value)/(high activity control−background value)). The IC50 value was determined using a non-linear 4 point logistic curve fit (XLfit4, IDBS) with the formula: (A+(B/(1+((x/C)^D)))), where A=background value, B=range, C=inflection point, D=curve fit parameter.
# [2] = test system: colon cancer cells (HCT116); test: Cancer cell line growth inhibition (SRB assay); format: cell-based; details: Homo sapiens, HCT-116; read-out: Cancer Cell Line GI50 Range HCT116
# Procedure: Breast cancer cells (MDA-MB-231), colon cancer cells (HCT116) and ovarian cancer cells (PA-1) were seeded (1000 to 4000 in 80 μl per well depending on the cell growth rate) into 96 well plates 24 hours before compound overlay. Compounds were prepared as 10 mM stock solutions in 100% DMSO which were diluted with DMEM (Dulbecco's Modified Eagle's Medium) cell growth Medium (Invitrogen, Burlington, ON, Canada) containing 10% FBS (Fetal Bovine Serum) to concentrations ranging from 50 nM to 250 μM. Aliquots (20 μl) from each concentration were overlaid to 80 μl of the pre-seeded cells in the 96 well plates to make final concentrations of 10 nM to 50 μM. The cells were cultured for 5 days before the Sulforhodamine B assay (SRB) was performed to determine the compound's cell growth inhibition activity.
# Sulforhodamine B (purchased from Sigma, Oakville, ON, Canada) is a water-soluble dye that binds to the basic amino acids of the cellular proteins. Thus, colorimetric measurement of the bound dye provides an estimate of the total protein mass that is related to the cell number. the cells are fixed in situ by gently aspirating off the culture media and adding 50 μl ice cold 10% Trichloroacetic Acid (TCA) per well and incubate at 4° C. for 30-60 min. The plates are washed with H2O five times and allowed to air dry for 5 min. Addition of 50 μl 0.4% (w/v) SRB solution in 1% (v/v) acetic acid to each well and incubation for 30 min at RT completes the staining reaction. Following staining, plates are washed four times with 1% acetic acid to remove unbound dye and then allowed to air dry for 5 min. The stain is solubilized with 100 μl of 10 mM Tris pH 10.5 per well. Absorbance is read at 570 nm.
# The percentage (%) of relative growth inhibition was calculated by comparing to DMSO treated only cells (100%). GI50's were determined for compounds with cytotoxic activity. The GI50 was calculated using GraphPad PRISM software (GraphPad Software, Inc., San Diego, Calif., USA).
SMILES,GI50 [1] [nM],GI50 (Breast cancer cells) [nM],IC50 (human TTK) [nM],GI50 [2] [nM]
"CN1CC2(CC(=O)c3cc(-c4n[nH]c5ccc(C(=O)N[C@H](c6ccccc6)C6CC6)cc45)ccc3O2)C1 [Example A254, (S)-N-(cyclopropyl(phenyl)methyl)-3-(1-methyl-4′-oxospiro[azetidine-3,2′-chroman]-6′-yl)-1H-indazole-5-carboxamide]",100 to 500,> 500,< 100,100 to 500
"CC(C)CC(NC(=O)c1ccc2[nH]nc(-c3ccc(O[C@H]4C[C@H]5CC[C@@H](C4)N5C4COC4)cc3)c2c1)c1ccccc1 (stereo partly drawn) [Example A338, N-(3-methyl-1-phenylbutyl)-3-(4-(((1R,3R,5S)-8-(oxetan-3-yl)-8-azabicyclo[3.2.1]octan-3-yl)oxy)phenyl)-1H-indazole-5-carboxamide]",100 to 500,100 to 500,< 100,100 to 500
"O=C(N[C@H](c1ccccn1)C1CC1)c1ccc2[nH]nc(-c3ccc4c(c3)C(=O)CC3(CCOCC3)O4)c2c1 [Example A262, (S)-N-(cyclopropyl(pyridin-2-yl)methyl)-3-(4-oxo-2′,3′,5′,6′-tetrahydrospiro[chroman-2,4′-pyran]-6-yl)-1H-indazole-5-carboxamide]",100 to 500,100 to 500,< 100,100 to 500
"CC(C)C(NC(=O)c1ccc2[nH]nc(-c3ccc(O[C@H]4C[C@H]5CC[C@@H](C4)N5C4COC4)cc3)c2c1)c1ccccc1Cl (stereo partly drawn) [Example A324, N-(1-(2-chlorophenyl)-2-methylpropyl)-3-(4-(((1R,3R,5S)-8-(oxetan-3-yl)-8-azabicyclo[3.2.1]octan-3-yl)oxy)phenyl)-1H-indazole-5-carboxamide]",100 to 500,100 to 500,< 100,100 to 500
CN1[C@@H]2CC[C@H]1C[C@@H](Oc1ccc(-c3n[nH]c4ccc(C(=O)NCC5(c6ccccn6)CC5)cc34)cc1)C2 [Example A488],> 500,> 500,< 100,> 500
"CN1CCC2(CC1)CC(=O)c1cc(-c3n[nH]c4ccc(C(=O)N[C@H](c5ccccc5)C5CC5)cc34)ccc1O2 [Example A251, (S)-N-(cyclopropyl(phenyl)methyl)-3-(1′-methyl-4-oxospiro[chroman-2,4′-piperidin]-6-yl)-1H-indazole-5-carboxamide]",100 to 500,100 to 500,< 100,100 to 500
"CN1[C@@H]2CC[C@H]1C[C@H](Oc1ccc(-c3n[nH]c4ccc(C(=O)NC(c5ccccc5)C5CC5)cc34)cc1)C2 (stereo partly drawn) [Example A286, N-(cyclopropyl(phenyl)methyl)-3-(4-(((1R,3S,5S)-8-methyl-8-azabicyclo[3.2.1]octan-3-yl)oxy)phenyl)-1H-indazole-5-carboxamide]",< 100,< 100,< 100,< 100
"O=CN1CCC2(CC1)CC(=O)c1cc(-c3n[nH]c4ccc(C(=O)N[C@H](c5ccccn5)C5CC5)cc34)ccc1O2 [Example A263, (S)-N-(cyclopropyl(pyridin-2-yl)methyl)-3-(1′-formyl-4-oxospiro[chroman-2,4′-piperidin]-6-yl)-1H-indazole-5-carboxamide]",< 100,100 to 500,< 100,100 to 500
"O=CN1[C@@H]2CC[C@H]1C[C@@H](Oc1ccc(-c3n[nH]c4ccc(C(=O)NC(c5ccccc5)C5CCC5)cc34)cc1)C2 (stereo partly drawn) [Example A346, N-(cyclobutyl(phenyl)methyl)-3-(4-(((1R,3R,5S)-8-formyl-8-azabicyclo[3.2.1]octan-3-yl)oxy)phenyl)-1H-indazole-5-carboxamide]",100 to 500,100 to 500,< 100,100 to 500
"CC(C)C(NC(=O)c1ccc2[nH]nc(-c3ccc(OC4CN(C)C4)cc3)c2c1)c1ccccc1Cl (stereo not shown) [Example A289, N-(1-(2-chlorophenyl)-2-methylpropyl)-3-(4-((1-methylazetidin-3-yl)oxy)phenyl)-1H-indazole-5-carboxamide]",100 to 500,> 500,< 100,100 to 500
